Source: patent EP1073639B1, “QUINOLINE DERIVATIVES” (Active Biotech AB, priority 1998, dated 1999)
Marks after values point to notes of the source that are not given here.

Columns and labels:
Type in all cases: in vivo
DBA/1 male mice = assay: Collagen induced arthritis (type II collagen); conditions: dose 5 mg/kg p.o.; for Mean score day 35: day 35, arthritic score
Description: Collagen induced arthritis
DBA/1 male mice between 8 to 10 weeks of age were used for the experiments. On day 0 the mice were immunized intradermally at the base of the tail with bovine type II collagen (100 µg/mouse) in Freund's complete adjuvant. The treatment was given per os daily on days 3 to 7, 10 to 14, 17 to 21, 24 to 28 and 31 to 35. Fifteen days after immunization mice were inspected for signs of arthritis. The animals were inspected three times a week. Every second or third day individual paws of the arthritic animals were scored by a scale from 0-4 (0 = no arthritis, 1 = arthritis in one of the interphalangeal, metatarsophalangeal or intercarpal joints, 2 = two arthritic joints, 3 = three arthritic joints, 4 = as in 3 but with more severe redness and swelling of the paw). The score for each paw was added to give a maximal attainable score of 16 for each mouse.

SJL/N female mice = assay: Acute experimental autoimmune encephalomyelitis (aEAE); conditions: for % aEAE Inhibition: mice
beagle dogs = assay: Beagle Pain Syndrome (BPS); conditions: result in words
Description: Beagle Pain Syndrome (BPS)
The compounds were administrated intravenously to beagle dogs. The dosage was given for five consecutive days. The dogs were evaluated for clinical and laboratory signs of the pain syndrome, e.g., fever, increased erythrocyte sedimentation rate (ESR), […] (AP), induction of acute phase proteins and vasculitis.

female rats = assay: Teratogenic effects in the rat (embryotoxicity, external malformations); conditions: for % malformed foetuses: rat
Clearance in dogs = conditions: higher than roquinimex

SMILES | Incidence (%) day 35 (DBA/1 male mice) | Mean score day 35 (DBA/1 male mice) | % aEAE Inhibition (SJL/N female mice; 5 mg/kg p.o.) | % aEAE Inhibition (SJL/N female mice; 0.2 mg/kg p.o.) | % aEAE Inhibition (SJL/N female mice; 1 mg/kg p.o.) | other results
CCN(C(=O)c1c(O)c2c3c(ccc2n(C)c1=O)OCO3)c1ccccc1 [E, N-ethyl-N-phenyl-1,2-dihydro-4-hydroxy-5,6-methylenedioxy-1-methyl-2-oxo-quinoline-3-carboxamide] | 10% | 0.1 |  |  |  | 
CCN(C(=O)c1c(O)c2c(Br)cccc2n(C)c1=O)c1ccccc1 [D, N-ethyl-N-phenyl-1,2-dihydro-4-hydroxy-5-bromo-1-methyl-2-oxo-quinoline-3-carboxamide] | 30% | 0.4 |  |  |  | 
CCN(C(=O)c1c(O)c2ccccc2n(C)c1=O)c1ccccc1 [Compound F, N-ethyl-N-phenyl-1,2-dihydro-4-hydroxy-1-methyl-2-oxo-quinoline-3-carboxamide, reference compound] |  |  | 63% |  |  | 
CCN(C(=O)c1c(O)c2c(OC)cccc2n(C)c1=O)c1ccccc1 [Compound C, N-ethyl-N-phenyl-1,2-dihydro-4-hydroxy-5-methoxy-1-methyl-2-oxo-quinoline-3-carboxamide] |  |  | 90% | 71% | 73% | % aEAE Inhibition (SJL/N female mice; 0.04 mg/kg p.o.): 48%
CN(C(=O)c1c(O)c2ccccc2n(C)c1=O)c1ccccc1 [Roquinimex, N-methyl-N-phenyl-1,2-dihydro-4-hydroxy-1-methyl-2-oxo-quinoline-3-carboxamide, reference compound] | 50% | 1.7 | 69% | 35% | 40% | inhibition of EAE in mice (SJL/N female mice; 5 mg/kg, treatment control): 70%; Beagle Pain Syndrome (BPS) (beagle dogs): induce the Beagle Pain Syndrome; % malformed foetuses (female rats; 10 mg/kg, route p.o.): 9^b) %; % malformed foetuses (female rats; 30 mg/kg, route p.o.): 30^b) %; teratogenic effect in the rat (female rats; result in words): teratogenic
CCN(C(=O)c1c(O)c2c(Cl)cccc2n(C)c1=O)c1ccccc1 [Compound B, N-ethyl-N-phenyl-1,2-dihydro-4-hydroxy-5-chloro-1-methyl-2-oxo-quinoline-3-carboxamide] |  |  | 96% | 74% | 98% | % aEAE Inhibition (SJL/N female mice; 0.04 mg/kg p.o.): 60%; % malformed foetuses (female rats; 6 mg/kg, route s.c.): 0^a) %; % malformed foetuses (female rats; 30 mg/kg, route s.c.): 1^a) %
Cn1c(=O)c(C(=O)Nc2ccccc2)c(O)c2ccccc21 [A] |  |  |  |  |  | clearance (Cl) in comparison with roquinimex (Clearance in dogs): 800 fold
CN(C(=O)c1c(O)c2c(Cl)cccc2n(C)c1=O)c1ccccc1 [Compound G, N-methyl-N-phenyl-1,2-dihydro-4-hydroxy-5-chloro-1-methyl-2-oxo-quinoline-3-carboxamide] |  |  |  |  |  | % malformed foetuses (female rats; 6 mg/kg, route s.c.): 37^a) %
